The values that follow are results of earlier work, collected in article PMC4876630 (Theranostics, 2016).

SMILES strings stand for the structures.

The conditions of this data set: ref [4]-[8].

By Aqueous solubility is commonly meant the dissolved amount per volume that the medium holds. Turning to `CC[C@@]1(O)C(=O)OCc2c1cc1n(c2=O)Cc2cc3ccccc3nc2-1` [CPT, camptothecin], the Aqueous solubility was 2 to 3 µg/mL.
